The record followed here is patent US6326014A, “Use of oxamate derivatives as depigmenting agents” (L, Oreal, priority 1997, dated 2001).

For the assay, the system named is co-culture of keratinocytes and melanocytes. The experiment in a line: Depigmenting activity: inhibition of melanogenesis in co-culture of keratinocytes and melanocytes. The class given is cell-based. The conditions noted are these: for IC50: keratinocyte/melanocyte co-culture, read-out: IC50 (50% inhibition of melanogenesis). The procedure: This test corresponds to the one described in patent FR 2,734,825 filed by the Applicant, as well as in the article by R. Schmidt, P. […], Anal. Biochem., 235(2), 113-18, (1996), the entire contents of each of which are hereby incorporated by reference. […] For each test compound, the IC50 value, which corresponds to the micromolar concentration (μM) for which a 50% inhibition of melanogenesis is observed, is determined. Moreover, a class is given to each of these compounds as regards their maximum depigmenting activity: […]

Turning to `O=c1cc(CO)occ1O` [Kojic acid, reference compound], the IC50 turned out to be 500 µM. Further, the “Class (maximum depigmenting activity)” value (at 500 μM) is 2 (30 to 60% inhibition of melanogenesis relative to the control (same experiment without test compound)).
As to `O=C(NC[C@H](O)[C@@H](O)[C@H](O)[C@H](O)CO)C(=O)Nc1ccc(O)cc1` [Example 2, N-(4-hydroxyphenyl)-N'-(D-glucamino)oxamide], the IC50 worked out at 10 µM. Moreover, the “Class (maximum depigmenting activity)” value (at 10 μM) is 2 (30 to 60% inhibition of melanogenesis relative to the control (same experiment without test compound)).
For `CCOC(=O)C(=O)Nc1ccc(O)cc1` [Example 1, Ethyl N-(4-hydroxyphenyl)oxamate], the IC50 amounted to 10 µM. Also, the “Class (maximum depigmenting activity)” value (at 50 μM) was 3 (60 to 100% inhibition of melanogenesis relative to the control (same experiment without test compound)).

By IC50 is commonly meant the concentration that gives 50% inhibition.
